Measured values reported in patent US6528618B1, “Anti-inflammatory peptides derived from C-reactive protein” (Yeda Research and Development Co. Ltd., priority 1997, dated 2003).
Entries after “also recorded” stand apart in the source; their conditions may differ. Where a SMILES comes first, the peptide text is derived from it.

Columns and labels:
[1] = target: T1, human leukocyte elastase (hLE) (Homo sapiens, UniProt P08246); assay: In vitro inhibition of hLE (cleavage of MeOSuc-AAPV-NA); type: biochemical; settings: for fold decrease in hLE inhibitory activity compared to peptide 6: relative to peptide 6
T1 construct: Neutrophils (1.4 billion) were isolated from whole blood obtained from a single healthy laboratory donor; from tissue; host or cells: neutrophils from whole blood of a single healthy donor
T1 sequence (P08246 30-247 limits assumed): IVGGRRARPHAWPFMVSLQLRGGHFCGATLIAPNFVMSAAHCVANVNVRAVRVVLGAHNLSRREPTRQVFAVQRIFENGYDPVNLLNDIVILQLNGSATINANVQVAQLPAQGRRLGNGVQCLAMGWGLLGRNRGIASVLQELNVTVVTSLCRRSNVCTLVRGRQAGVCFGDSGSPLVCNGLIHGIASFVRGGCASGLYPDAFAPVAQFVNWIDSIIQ
Protocol: (§1) The enzymatic activity was assayed with MeOSuc-AAPV-NA for hLE determination and Suc-AAPF-NA for hCG determination (both in 100 mM Hepes buffer, pH 7.4, containing 0.05% of the […] detergent Brij-35). The activities of the individual enzymatic fractions were 100% free from cross-contamination. […] The fractions containing hLE and hCG were dialyzed each against 0.1% pyridinium acetate, pH 5.3, divided into 20 aliquots, lyophilized, and stored at −20 ° C. until use.
(v) Inhibition experiments with hLE: Peptides were dissolved in 100 mM Hepes buffer pH 7.4 containing 0.1% Brij-35 with 10%. DMSO to yield 300 μM solutions, which were used to make further dilutions with the same buffer, and 80 μL aliquots were added in duplicates to 96-well plates. The substrate, 600 μM MeOSuc-AAPV-NA in the same buffer with 5% DMSO, was added to each well in addition to the blank wells, and the plate was placed in the plate reader equilibrated to 37 C (Dynateck MR-6000). Lyophilized aliquots of hLE were dissolved in 1600 μL of 100 mM Hepes buffer without DMSO, and 80 μL of the enzyme solution was added to the peptides and substrate to initiate the reaction. […] The final volume was 240 μL containing: 5% DMSO, 1-100 μM of peptide, 200 μM substrate, and 0.75 μg (˜25 picomol) enzyme.
(viii) Calculations: For hLE, V is determined by fitting a linear equation to the first 6 time-points (10 min) of the kinetics data using the least squares method. […] Several inhibitor concentration in duplicates and two control wells were used to fit a linear equation to graphs of Vo/Vi−1 vs. [I] for each inhibitor using the least squares method (8 data points for each inhibitor). From calculating the error in the slope of the equation, the relative error for Ki was deduced:
Ki={slope*(1+[S]/Km)}^−1because Ki=[I]*{(1+[S]/Km)*(Vo/Vi−1)}^−1.
The hLE inhibitory capability of CRP-derived peptides was evaluated by inhibiting the enzymatic cleavage of MeOSuc-AAPV-NA as described in Materials and Methods (section v).

[2] = target: T2, human leukocyte cathepsin G (hCG) (Homo sapiens, UniProt P08311); assay: In vitro inhibition of hCG (cleavage of Suc-AAPF-NA); type: biochemical
T2 construct: Neutrophils (1.4 billion) were isolated from whole blood obtained from a single healthy laboratory donor; from tissue; host or cells: neutrophils from whole blood of a single healthy donor
T2 sequence (P08311 21-243 limits assumed): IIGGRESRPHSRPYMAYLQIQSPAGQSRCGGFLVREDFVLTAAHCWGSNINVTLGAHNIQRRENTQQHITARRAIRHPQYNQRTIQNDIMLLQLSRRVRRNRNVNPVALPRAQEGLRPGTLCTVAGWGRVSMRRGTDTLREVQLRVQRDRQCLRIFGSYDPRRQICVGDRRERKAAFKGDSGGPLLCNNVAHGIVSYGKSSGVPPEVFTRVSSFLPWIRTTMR
Protocol: as §1
vi) Inhibition experiments with hCG: Similar conditions to hLE inhibition experiments were used except the substrate: 80 μL of 1.80 mM Suc-AAPF-NA. The enzyme was dissolved in 800 μL buffer, and the reaction was monitored every 6 min for 1 hour. The final volume was 240 μL containing: 5% DMSO, 1-100 μM peptide, 600 μM substrate, and 1.2 μg enzyme (about 40 picomol).
For hCG, V is determined by fitting a quadratic equation to the total kinetic data (60 min), using the least squares method and calculating V at t=0.
The hCG inhibitory capability of CRP-derived peptides was evaluated by inhibiting the enzymatic cleavage of Suc-AAPF-NA as described in Materials and Methods (section vi).

[3] = hLE Ki [μM], Table 1, substrate MeOSuc-AAPV-NA 200 μM, pH 7.4, 37 C
[4] = hCG Ki [μM], Table 1, substrate Suc-AAPF-NA 600 μM, pH 7.4
[5] = hLE Ki [μM], Table 2, substrate MeOSuc-AAPV-NA 200 μM, pH 7.4, 37 C

Row | SMILES | Ki [1, 3] [µM] | Ki [2, 4] [µM] | hLE inhibitory activity (in words) [1] | further results
1 | CC[C@H](C)[C@H](NC(=O)[C@H](CO)NC(=O)[C@H](Cc1ccc(O)cc1)NC(=O)CNC(=O)[C@H](CCCNC(=N)N)NC(=O)[C@@H](NC(=O)[C@H](CO)NC(=O)[C@H](CO)NC(=O)[C@H](CC(C)C)NC(=O)[C@H](CCC(=O)O)NC(=O)[C@@H](NC(=O)[C@H](Cc1ccc(O)cc1)NC(=O)[C@H](Cc1ccccc1)NC(=O)[C@H](Cc1c[nH]cn1)NC(=O)[C@@H](N)CC(C)C)[C@@H](C)O)[C@@H](C)O)C(=O)O [Peptide 1, Leu-His-Phe-Tyr-Thr-Glu-Leu-Ser-Ser-Thr-Arg-Gly-Tyr-Ser-Ile] (H-LHFYTELSSTRGYSI-OH) | > 200 | > 200 |  | 
2 | CC[C@H](C)[C@H](NC(=O)[C@H](CO)NC(=O)[C@H](Cc1ccc(O)cc1)NC(=O)CNC(=O)[C@H](CCCNC(=N)N)NC(=O)[C@@H](NC(=O)[C@H](CO)NC(=O)[C@H](CO)NC(=O)[C@H](CC(C)C)NC(=O)[C@@H](N)CCC(=O)O)[C@@H](C)O)C(=O)N[C@@H](Cc1ccccc1)C(=O)N[C@@H](CO)C(=O)N[C@@H](Cc1ccc(O)cc1)C(=O)N[C@@H](C)C(=O)N[C@H](C(=O)O)[C@@H](C)O [Peptide 2, Glu-Leu-Ser-Ser-Thr-Arg-Gly-Tyr-Ser-Ile-Phe-Ser-Tyr-Ala-Thr] (H-ELSSTRGYSIFSYAT-OH) | > 200 | > 200 |  | 
3 | CC[C@H](C)[C@H](NC(=O)[C@H](CO)NC(=O)[C@H](Cc1ccc(O)cc1)NC(=O)CNC(=O)[C@@H](N)CCCNC(=N)N)C(=O)N[C@@H](Cc1ccccc1)C(=O)N[C@@H](CO)C(=O)N[C@@H](Cc1ccc(O)cc1)C(=O)N[C@@H](C)C(=O)N[C@H](C(=O)N[C@@H](CCCCN)C(=O)N[C@@H](CCCNC(=N)N)C(=O)N[C@@H](CCC(N)=O)C(=O)N[C@@H](CC(=O)O)C(=O)N[C@@H](CC(N)=O)C(=O)O)[C@@H](C)O [Peptide 3, Arg-Gly-Tyr-Ser-Ile-Phe-Ser-Tyr-Ala-Thr-Lys-Arg-Gln-Asp-Asn] (H-RGYSIFSYATKRQDN-OH) | > 200 | > 200 |  | 
4 | CC[C@H](C)[C@H](NC(=O)[C@H](CC(C)C)NC(=O)[C@@H](NC(=O)[C@H](CCC(=O)O)NC(=O)[C@H](CC(N)=O)NC(=O)[C@H](CC(=O)O)NC(=O)[C@H](CCC(N)=O)NC(=O)[C@H](CCCNC(=N)N)NC(=O)[C@H](CCCCN)NC(=O)[C@@H](NC(=O)[C@H](C)NC(=O)[C@H](Cc1ccc(O)cc1)NC(=O)[C@H](CO)NC(=O)[C@@H](N)Cc1ccccc1)[C@@H](C)O)[C@@H](C)CC)C(=O)N[C@@H](Cc1ccccc1)C(=O)O [Peptide 4, Phe-Ser-Tyr-Ala-Thr-Lys-Arg-Gln-Asp-Asn-Glu-Ile-Leu-Ile-Phe] (H-FSYATKRQDNEILIF-OH) | > 200 | > 200 |  | 
5 | CC[C@H](C)[C@H](NC(=O)[C@H](CC(=O)O)NC(=O)[C@H](CCCCN)NC(=O)[C@H](CO)NC(=O)[C@H](Cc1c[nH]c2ccccc12)NC(=O)[C@H](Cc1ccccc1)NC(=O)[C@@H](NC(=O)[C@H](CC(C)C)NC(=O)[C@@H](NC(=O)[C@H](CCC(=O)O)NC(=O)[C@H](CC(N)=O)NC(=O)[C@H](CC(=O)O)NC(=O)[C@H](CCC(N)=O)NC(=O)[C@H](CCCNC(=N)N)NC(=O)[C@@H](N)CCCCN)[C@@H](C)CC)[C@@H](C)CC)C(=O)O [Peptide 5, Lys-Arg-Gln-Asp-Asn-Glu-Ile-Leu-Ile-Phe-Trp-Ser-Lys-Asp-Ile] (H-KRQDNEILIFWSKDI-OH; N-terminus and C-terminus assumed) |  |  | two orders of magnitude less potent than peptide 6; also recorded: lowered the inhibitory capability by more than one order of magnitude | Ki ([1]; hLE inhibitory activity range): 50 to 100 µM; Ki ([2]; hCG inhibitory activity range): 150 to 200 µM
6 | CC[C@H](C)[C@H](NC(=O)[C@H](CC(=O)O)NC(=O)[C@H](CCCCN)NC(=O)[C@H](CO)NC(=O)[C@H](Cc1c[nH]c2ccccc12)NC(=O)[C@H](Cc1ccccc1)NC(=O)[C@@H](NC(=O)[C@H](CC(C)C)NC(=O)[C@@H](NC(=O)[C@@H](N)CC(=O)O)[C@@H](C)CC)[C@@H](C)CC)C(=O)NCC(=O)N[C@@H](Cc1ccc(O)cc1)C(=O)N[C@@H](CO)C(=O)N[C@@H](Cc1ccccc1)C(=O)N[C@H](C(=O)O)[C@@H](C)O [Peptide 18, Asp-Ile-Leu-Ile-Phe-Trp-Ser-Lys-Asp-Ile-Gly-Tyr-Ser-Phe-Thr] (H-DILIFWSKDIGYSFT-OH; N-terminus and C-terminus assumed) |  |  |  | fold decrease in hLE inhibitory activity compared to peptide 6 [1]: 10 fold
7 | CC[C@H](C)[C@H](NC(=O)[C@H](CC(=O)O)NC(=O)[C@H](CCCCN)NC(=O)[C@@H]1CCCN1C(=O)[C@H](Cc1c[nH]c2ccccc12)NC(=O)[C@H](Cc1ccccc1)NC(=O)[C@@H](NC(=O)[C@H](CC(C)C)NC(=O)[C@@H](NC(=O)[C@@H](N)CCC(=O)O)[C@@H](C)CC)[C@@H](C)CC)C(=O)NCC(=O)N[C@@H](Cc1ccc(O)cc1)C(=O)N[C@@H](CO)C(=O)N[C@@H](Cc1ccccc1)C(=O)N[C@H](C(=O)O)[C@@H](C)O [Peptide 19, Glu-Ile-Leu-Ile-Phe-Trp-Pro-Lys-Asp-Ile-Gly-Tyr-Ser-Phe-Thr] (H-EILIFWPKDIGYSFT-OH; N-terminus and C-terminus assumed) |  |  | two orders of magnitude loss of inhibitory activity | Ki [1, 5]: > 200 µM
8 | CC[C@H](C)[C@H](NC(=O)CNC(=O)[C@H](Cc1ccc(O)cc1)NC(=O)[C@H](CO)NC(=O)[C@H](Cc1ccccc1)NC(=O)[C@@H](N)[C@@H](C)O)C(=O)N[C@@H](CC(=O)O)C(=O)N[C@@H](CCCCN)C(=O)N[C@@H](CO)C(=O)N[C@@H](Cc1c[nH]c2ccccc12)C(=O)N[C@@H](Cc1ccccc1)C(=O)N[C@H](C(=O)N[C@@H](CC(C)C)C(=O)N[C@H](C(=O)N[C@@H](CCC(=O)O)C(=O)O)[C@@H](C)CC)[C@@H](C)CC [Peptide 24, Thr-Phe-Ser-Tyr-Gly-Ile-Asp-Lys-Ser-Trp-Phe-Ile-Leu-Ile-Glu] (H-TFSYGIDKSWFILIE-OH; N-terminus and C-terminus assumed) |  |  |  | fold decrease in hLE inhibitory activity compared to peptide 6 [1]: 30 fold
9 | CC[C@H](C)[C@H](NC(=O)[C@H](CC(=O)O)NC(=O)[C@H](C)NC(=O)[C@H](CO)NC(=O)[C@H](Cc1c[nH]c2ccccc12)NC(=O)[C@H](Cc1ccccc1)NC(=O)[C@@H](NC(=O)[C@H](CC(C)C)NC(=O)[C@@H](NC(=O)[C@@H](N)CCC(=O)O)[C@@H](C)CC)[C@@H](C)CC)C(=O)O [Peptide 25, Glu-Ile-Leu-Ile-Phe-Trp-Ser-Ala-Asp-Ile] (H-EILIFWSADI-OH; N-terminus and C-terminus assumed) |  |  | slightly more potent than peptide 14 | Ki [1, 5]: 3 ± 0.5 µM
10 | CC[C@H](C)[C@H](NC(=O)[C@H](CC(=O)O)NC(=O)[C@@H](NC(=O)[C@H](CO)NC(=O)[C@H](Cc1c[nH]c2ccccc12)NC(=O)[C@H](Cc1ccccc1)NC(=O)[C@@H](NC(=O)[C@H](CC(C)C)NC(=O)[C@@H](NC(=O)[C@@H](N)CCC(=O)O)[C@@H](C)CC)[C@@H](C)CC)C(C)C)C(=O)O [Peptide 26, Glu-Ile-Leu-Ile-Phe-Trp-Ser-Val-Asp-Ile] (H-EILIFWSVDI-OH; N-terminus and C-terminus assumed) |  |  | slightly more potent than peptide 14 | 
